In ChEMBL document CHEMBL1124596, “Introduction of a putative dopaminergic prodrug moiety into a 6,7-substitution pattern characteristic of certain 2-aminotetralin dopaminergic agonists” (1989):

Test system: Felis catus
Experiment: Inhibition of cat cardiac response to cardioaccelerator nerve stimulation, when administered intravenously
Assay type: functional
Settings: iv, read-out: ID50 (the source's name)

Row | Compound | ED50 [µmol/kg]
1 | CCCN(CCC)C1CCc2c(ccc(C)c2O)C1 (centres undefined) | 0.25
2 | CCCN(CCC)C1CCc2cc(O)c(C)cc2C1 (centres undefined) | 1.75
3 | CN1CCc2cccc3c2[C@H]1Cc1ccc(O)c(O)c1-3 [APOMORPHINE] | 0.035
4 | CCCN(CCC)C1CCc2cc(C)c(O)cc2C1 (centres undefined) | 0.54
